This test in a line: Displacement of [H3]3-methylhistidylTRH from rat recombinant TRH2 receptor expressed in […] cells. The class given is cell-based.
Take `CC(C)C(=O)c1c(O)c([C@H](C2=C(O)C(C)(C)C(=O)C(C)(C)C2=O)C(C)C)c(O)c([C@H](C2=C(O)C(C)(C)C(=O)C(C)(C)C2=O)C(C)C)c1O` [MYRTUCOMMULONE A]: the IC50 is 39 µM.

As for `CC(C)C(=O)c1c(O)c2c(c3c1O[C@@]1(O)[C@@H](C(O)C(C)(C)C(=O)C1(C)C)[C@@H]3C(C)C)OC1=C(C(=O)C(C)(C)C(=O)C1(C)C)[C@@H]2C(C)C` (stereo partly specified) [MYRTUCOMMULONE D], the IC50 stood at 11 µM.

For the molecule `CCCCCC(=O)c1c(O)c([C@H](C2=C(O)C(C)(C)C(=O)C(C)(C)C2=O)C(C)C)c(O)c([C@H](C2=C(O)C(C)(C)C(=O)C(C)(C)C2=O)C(C)C)c1O` [MYRTUCOMMULONE F], the IC50 was determined as 16 µM. With `CCCCCC(=O)c1c(O)c2c(c3c1O[C@@]1(O)[C@@H](C(O)C(C)(C)C(=O)C1(C)C)[C@@H]3C(C)C)OC1=C(C(=O)C(C)(C)C(=O)C1(C)C)[C@@H]2C(C)C` (stereo partly specified) [MYRTUCOMMULONE G] the figure was 24 µM; with `CCCCCC(=O)c1c(O)c([C@@H](CC(C)C)C2=C(O)C(C)(C)C(=O)C(C)(C)C2=O)c(O)c([C@H](C2=C(O)C(C)(C)C(=O)C(C)(C)C2=O)C(C)C)c1O` [MYRTUCOMMULONE H], 31 µM.

As for `CCCCCC(=O)c1c(O)c2c(c3c1O[C@@]1(O)[C@@H](C(O)C(C)(C)C(=O)C1(C)C)[C@@H]3C(C)C)OC1=C(C(=O)C(C)(C)C(=O)C1(C)C)[C@@H]2CC(C)C` (stereo partly specified) [MYRTUCOMMULONE I], the IC50 amounted to 16 µM.

A word on the IC50: it is the concentration at which inhibition is half-maximal.

The values above are taken from ChEMBL document CHEMBL1156661, “Myrtucommulones F-I, phloroglucinols with thyrotropin-releasing hormone receptor-2 binding affinity from the seeds of Corymbia scabrida” (J Nat Prod, 2008).
